For the test, the system named is L1210. The experiment in a line: In vitro cytotoxicity against Leukemia L1210 cell line. The format is functional. The settings on record: Mus musculus.

Counter-ions that a name gives are not always drawn.

With CISPLATIN, the ED50 came out at 1000 nM.
Consider `COc1cccc2c1C(=O)c1c(O)c3c(c(O)c1C2=O)C[C@@](O)(C(=O)CO)C[C@@H]3O[C@H]1C[C@H](N)[C@H](O)[C@H](C)O1` [DOXORUBICIN HYDROCHLORIDE], for which the EC50 (read-out: ED50 (the source's name)) came to 100 nM.

These data come from ChEMBL document CHEMBL1142755, “A macromolecular prodrug of doxorubicin conjugated to a biodegradable cyclotriphosphazene bearing a tetrapeptide” (2005).
